Non-standard residues stand in square brackets, D forms with d. Residues, ends and D or L forms follow the SMILES beside them. NMeE = CN[C@@H](CCC(=O)O)C(=O)O

The first assay has as its target Sushi domains (SD1/2) protein. In words: Fluorescence polarization (FP) competition assay with AJAP-1probe, calculated Ki. In kind it is binding. As to conditions: Table 3, SPOT hit validation and previously reported peptides; read-out: Ki (nM) mean ± SEM. The essentials: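 Competition against 25 nM TAMRA-labelled peptide probe binding SD1/2, in PBS pH 7.4 with 1% BSA at rt, read at 530/580 nm. IC50 from sigmoidal dose-response fits, at least triplicate; Ki calculated from IC50 using probe Kd from saturation binding.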
With `CC[C@H](C)[C@H](NC(=O)[C@H](Cc1ccccc1)NC(=O)[C@H](CCC(=O)O)NC(=O)[C@@H](NC(=O)[C@H](CCC(=O)O)NC(=O)[C@@H](NC(=O)[C@@H](NC(C)=O)[C@@H](C)O)[C@@H](C)O)[C@@H](C)O)C(=O)N[C@@H](C)C(=O)N[C@@H](Cc1c[nH]c2ccccc12)C(=O)NCC(=O)N1CCC[C@H]1C(=O)N[C@H](C(=O)NCC(=O)N[C@@H](CC(=O)O)C(=O)N[C@@H](CCC(=O)O)C(N)=O)[C@@H](C)O` (Ac-TTETEFIAWGPTGDE-NH2), the Ki is 73 ± 1 nM.

For the molecule `CC[C@H](C)[C@H](NC(=O)[C@H](C)NC(=O)[C@H](Cc1c[nH]c2ccccc12)NC(C)=O)C(=O)N[C@H](C(=O)N[C@@H](Cc1c[nH]c2ccccc12)C(=O)NCC(=O)N1CCC[C@H]1C(=O)N[C@H](C(=O)N[C@H](C(=O)N[C@@H](CO)C(=O)N[C@@H](CCCNC(=N)N)C(=O)N[C@@H](CCC(=O)O)C(=O)N[C@@H](CC(=O)O)C(=O)NCC(=O)NCC(N)=O)C(C)C)[C@@H](C)O)C(C)C` (Ac-WAIVWGPTVSREDGG-NH2), the Ki is 1350 ± 49 nM.

The assay is the same for the next values; noted with them: Table 4, truncation and elongation scans of APP epitope; read-out: Ki (nM) mean ± SEM.
For the molecule `CC(=O)N[C@H](C(=O)N[C@@H](Cc1c[nH]c2ccccc12)C(=O)N[C@@H](Cc1c[nH]c2ccccc12)C(=O)NCC(=O)NCC(=O)N[C@@H](C)C(=O)N[C@@H](CC(=O)O)C(=O)N[C@H](C(=O)N[C@@H](CC(=O)O)C(=O)N[C@@H](Cc1ccc(O)cc1)C(=O)N[C@@H](C)C(=O)N[C@@H](CC(=O)O)C(N)=O)[C@@H](C)O)C(C)C` (Ac-VWWGGADTDYAD-NH2), the Ki was 60800 ± 5220 nM.

For `CC(=O)N[C@@H](Cc1c[nH]c2ccccc12)C(=O)NCC(=O)NCC(=O)N[C@@H](C)C(=O)N[C@@H](CC(=O)O)C(=O)N[C@H](C(=O)N[C@@H](CC(=O)O)C(=O)N[C@@H](Cc1ccc(O)cc1)C(=O)N[C@@H](C)C(=O)N[C@@H](CC(=O)O)C(N)=O)[C@@H](C)O` (Ac-WGGADTDYAD-NH2), the Ki is > 62500 nM.

Consider `CC(=O)N[C@@H](Cc1c[nH]c2ccccc12)C(=O)N[C@@H](Cc1c[nH]c2ccccc12)C(=O)NCC(=O)NCC(=O)N[C@@H](C)C(=O)N[C@@H](CC(=O)O)C(=O)N[C@H](C(=O)N[C@@H](CC(=O)O)C(=O)N[C@@H](Cc1ccc(O)cc1)C(=O)N[C@@H](C)C(=O)N[C@@H](CC(=O)O)C(N)=O)[C@@H](C)O` (Ac-WWGGADTDYAD-NH2), for which the Ki is > 62500 nM.

The same assay, now with this note: Table 5, elongation and truncation scan of AJAP-1 binding epitope; read-out: Ki (nM) mean ± SEM.
As to `CC[C@H](C)[C@H](NC(=O)[C@H](Cc1ccccc1)NC(=O)[C@H](CCC(=O)O)NC(=O)[C@@H](NC(=O)[C@H](CCC(=O)O)NC(=O)[C@@H](NC(C)=O)[C@@H](C)O)[C@@H](C)O)C(=O)N[C@@H](C)C(=O)N[C@@H](Cc1c[nH]c2ccccc12)C(N)=O` (Ac-TETEFIAW-NH2), the Ki is 1010 ± 67 nM.

Consider `CC[C@H](C)[C@H](NC(=O)[C@H](Cc1ccccc1)NC(=O)[C@H](CCC(=O)O)NC(=O)[C@@H](NC(=O)[C@H](CCC(=O)O)NC(=O)[C@@H](NC(C)=O)[C@@H](C)O)[C@@H](C)O)C(=O)N[C@@H](C)C(=O)N[C@@H](Cc1c[nH]c2ccccc12)C(=O)NCC(N)=O` (Ac-TETEFIAWG-NH2), for which the Ki was 2470 ± 170 nM.

`CC[C@H](C)[C@H](NC(=O)[C@H](Cc1ccccc1)NC(=O)[C@H](CCC(=O)O)NC(=O)[C@@H](NC(=O)[C@H](CCC(=O)O)NC(=O)[C@@H](NC(C)=O)[C@@H](C)O)[C@@H](C)O)C(=O)N[C@@H](C)C(=O)N[C@@H](Cc1c[nH]c2ccccc12)C(=O)NCC(=O)N1CCC[C@H]1C(N)=O` (Ac-TETEFIAWGP-NH2): the Ki was 574 ± 7 nM.

In the case of `CC[C@H](C)[C@H](NC(=O)[C@H](Cc1ccccc1)NC(=O)[C@H](CCC(=O)O)NC(=O)[C@@H](NC(=O)[C@H](CCC(=O)O)NC(=O)[C@@H](NC(C)=O)[C@@H](C)O)[C@@H](C)O)C(=O)N[C@@H](C)C(=O)N[C@@H](Cc1c[nH]c2ccccc12)C(=O)NCC(=O)N1CCC[C@H]1C(=O)N[C@H](C(N)=O)[C@@H](C)O` (Ac-TETEFIAWGPT-NH2), the Ki is 236 ± 9 nM.

With `CC[C@H](C)[C@H](NC(=O)[C@H](Cc1ccccc1)NC(=O)[C@H](CCC(=O)O)NC(=O)[C@@H](NC(=O)[C@H](CCC(=O)O)NC(=O)[C@@H](NC(C)=O)[C@@H](C)O)[C@@H](C)O)C(=O)N[C@@H](C)C(=O)N[C@@H](Cc1c[nH]c2ccccc12)C(=O)NCC(=O)N1CCC[C@H]1C(=O)N[C@H](C(=O)NCC(N)=O)[C@@H](C)O` (Ac-TETEFIAWGPTG-NH2), the Ki was 248 ± 7 nM.

Take `CC[C@H](C)[C@H](NC(=O)[C@H](Cc1ccccc1)NC(=O)[C@H](CCC(=O)O)NC(=O)[C@@H](NC(=O)[C@H](CCC(=O)O)NC(=O)[C@@H](NC(C)=O)[C@@H](C)O)[C@@H](C)O)C(=O)N[C@@H](C)C(=O)N[C@@H](Cc1c[nH]c2ccccc12)C(=O)NCC(=O)N1CCC[C@H]1C(=O)N[C@H](C(=O)NCC(=O)N[C@@H](CC(=O)O)C(N)=O)[C@@H](C)O` (Ac-TETEFIAWGPTGD-NH2): the Ki was 97 ± 7 nM.

As for `CC[C@H](C)[C@H](NC(=O)[C@H](Cc1ccccc1)NC(=O)[C@H](CCC(=O)O)NC(=O)[C@@H](NC(=O)[C@H](CCC(=O)O)NC(=O)[C@@H](NC(C)=O)[C@@H](C)O)[C@@H](C)O)C(=O)N[C@@H](C)C(=O)N[C@@H](Cc1c[nH]c2ccccc12)C(=O)NCC(=O)N1CCC[C@H]1C(=O)N[C@H](C(=O)NCC(=O)N[C@@H](CC(=O)O)C(=O)N[C@@H](CCC(=O)O)C(N)=O)[C@@H](C)O` (Ac-TETEFIAWGPTGDE-NH2), the Ki is 69 ± 1 nM.

Take `CC[C@H](C)[C@H](NC(=O)[C@H](Cc1ccccc1)NC(=O)[C@H](CCC(=O)O)NC(=O)[C@@H](NC(=O)[C@H](CCC(=O)O)NC(=O)[C@@H](NC(C)=O)[C@@H](C)O)[C@@H](C)O)C(=O)N[C@@H](C)C(=O)N[C@@H](Cc1c[nH]c2ccccc12)C(=O)NCC(=O)N1CCC[C@H]1C(=O)N[C@H](C(=O)NCC(=O)N[C@@H](CC(=O)O)C(=O)N[C@@H](CCC(=O)O)C(=O)N[C@@H](CC(=O)O)C(=O)N[C@@H](C)C(N)=O)[C@@H](C)O` (Ac-TETEFIAWGPTGDEDA-NH2): the Ki is 36 ± 1.7 nM.

Take `CC[C@H](C)[C@H](NC(=O)[C@H](Cc1ccccc1)NC(=O)[C@H](CCC(=O)O)NC(=O)[C@@H](NC(=O)[C@H](CCC(=O)O)NC(=O)[C@@H](NC(C)=O)[C@@H](C)O)[C@@H](C)O)C(=O)N[C@@H](C)C(=O)N[C@@H](Cc1c[nH]c2ccccc12)C(=O)NCC(=O)N1CCC[C@H]1C(=O)N[C@H](C(=O)NCC(=O)N[C@@H](CC(=O)O)C(=O)N[C@@H](CCC(=O)O)C(=O)N[C@@H](CC(=O)O)C(=O)N[C@@H](C)C(=O)N[C@@H](CC(C)C)C(N)=O)[C@@H](C)O` (Ac-TETEFIAWGPTGDEDAL-NH2): the Ki was 47 ± 2 nM.

Consider `CC[C@H](C)[C@H](NC(=O)[C@H](Cc1ccccc1)NC(=O)[C@H](CCC(=O)O)NC(=O)[C@@H](NC(=O)[C@H](CCC(=O)O)NC(=O)[C@@H](NC(=O)[C@@H](NC(C)=O)[C@@H](C)O)[C@@H](C)O)[C@@H](C)O)C(=O)N[C@@H](C)C(=O)N[C@@H](Cc1c[nH]c2ccccc12)C(=O)NCC(=O)N1CCC[C@H]1C(=O)N[C@H](C(=O)NCC(=O)N[C@@H](CC(=O)O)C(=O)N[C@@H](CCC(=O)O)C(=O)N[C@@H](CC(=O)O)C(N)=O)[C@@H](C)O` (Ac-TTETEFIAWGPTGDED-NH2), for which the Ki is 32 ± 1.4 nM.

The assay is the same for the next values; noted with them: Table 6, elongation and truncation scan of PIANP binding epitope; read-out: Ki (nM) mean ± SEM.
`CC(=O)N[C@H](C(=O)N[C@@H](Cc1c[nH]c2ccccc12)C(=O)NCC(=O)N1CCC[C@H]1C(=O)N[C@H](C(=O)N[C@H](C(=O)N[C@@H](CO)C(=O)N[C@@H](CCCNC(=N)N)C(=O)N[C@@H](CCC(=O)O)C(=O)N[C@@H](CC(=O)O)C(=O)NCC(N)=O)C(C)C)[C@@H](C)O)C(C)C` (Ac-VWGPTVSREDG-NH2): the Ki was 1740 ± 62 nM.

On to `CC[C@H](C)[C@H](NC(=O)[C@H](C)NC(=O)[C@H](Cc1c[nH]c2ccccc12)NC(C)=O)C(=O)N[C@H](C(=O)N[C@@H](Cc1c[nH]c2ccccc12)C(=O)NCC(=O)N1CCC[C@H]1C(=O)N[C@H](C(=O)N[C@H](C(=O)N[C@@H](CO)C(=O)N[C@@H](CCCNC(=N)N)C(=O)N[C@@H](CCC(=O)O)C(=O)N[C@@H](CC(=O)O)C(=O)NCC(N)=O)C(C)C)[C@@H](C)O)C(C)C` (Ac-WAIVWGPTVSREDG-NH2), for which the Ki is > 62500 nM.

As to `CC[C@H](C)[C@H](NC(=O)[C@H](C)NC(=O)[C@H](Cc1c[nH]c2ccccc12)NC(=O)[C@@H]1CCCN1C(=O)[C@H](Cc1ccc(O)cc1)NC(C)=O)C(=O)N[C@H](C(=O)N[C@@H](Cc1c[nH]c2ccccc12)C(=O)NCC(=O)N1CCC[C@H]1C(=O)N[C@H](C(=O)N[C@H](C(=O)N[C@@H](CO)C(=O)N[C@@H](CCCNC(=N)N)C(=O)N[C@@H](CCC(=O)O)C(=O)N[C@@H](CC(=O)O)C(=O)NCC(N)=O)C(C)C)[C@@H](C)O)C(C)C` (Ac-YPWAIVWGPTVSREDG-NH2), the Ki is 433 ± 2 nM.

The assay is the same for the next values; noted with them: Table 7, Ala-, D-amino acids and N-methylation scans of APPWT; read-out: Ki (nM) mean ± SEM.
`CC(=O)N(C)[C@@H](CCC(=O)O)C(=O)N[C@@H](CC(=O)O)C(=O)N[C@@H](CC(=O)O)C(=O)N[C@@H](CO)C(=O)N[C@@H](CC(=O)O)C(=O)N[C@H](C(=O)N[C@@H](Cc1c[nH]c2ccccc12)C(=O)N[C@@H](Cc1c[nH]c2ccccc12)C(=O)NCC(=O)NCC(=O)N[C@@H](C)C(=O)N[C@@H](CC(=O)O)C(=O)N[C@H](C(=O)N[C@@H](CC(=O)O)C(N)=O)[C@@H](C)O)C(C)C` (Ac-[NMeE]DDSDVWWGGADTD-NH2): the Ki is 670 ± 6 nM.

Still in this assay, the particulars now being: Table 8, Ala-, D-amino acids and N-methylation scans of AJAP-1WT; read-out: Ki (nM) mean ± SEM.
Consider `CC[C@H](C)[C@H](NC(=O)[C@H](Cc1ccccc1)NC(=O)[C@H](CCC(=O)O)NC(=O)[C@@H](NC(=O)[C@H](CCC(=O)O)N(C)C(C)=O)[C@@H](C)O)C(=O)N[C@@H](C)C(=O)N[C@@H](Cc1c[nH]c2ccccc12)C(=O)NCC(=O)N1CCC[C@H]1C(=O)N[C@H](C(=O)NCC(=O)N[C@@H](CC(=O)O)C(=O)N[C@@H](CCC(=O)O)C(=O)N[C@@H](CC(=O)O)C(N)=O)[C@@H](C)O` [(N-Me-E)TEFIAWGPTGDED] (Ac-[NMeE]TEFIAWGPTGDED-NH2), for which the Ki was 35 ± 1 nM.

These data come from patent US20260193293A1, “PEPTIDES CAPABLE OF INHIBITING PROTEIN-PROTEIN INTERACTIONS AT GABAB1A SUBUNIT AND USES THEREOF” (UNIVERSITY OF COPENHAGEN, priority 2022, published 2026).
